According to ChEMBL document CHEMBL5329194, “Design, Synthesis, and Evaluation of 18F-Labeling CYP1B1 PET Tracer Based on 2-Phenylquinazolin” (Bioorg Med Chem Lett, 2023):

Assays:
Type in all cases: ADME
Cytochrome P450 1B1 = target: T1, Cytochrome P450 1B1 (Homo sapiens, UniProt Q16678); assay: Inhibition of CYP1B1 (unknown origin) by EROD assay
T1 sequence (Q16678 whole entry): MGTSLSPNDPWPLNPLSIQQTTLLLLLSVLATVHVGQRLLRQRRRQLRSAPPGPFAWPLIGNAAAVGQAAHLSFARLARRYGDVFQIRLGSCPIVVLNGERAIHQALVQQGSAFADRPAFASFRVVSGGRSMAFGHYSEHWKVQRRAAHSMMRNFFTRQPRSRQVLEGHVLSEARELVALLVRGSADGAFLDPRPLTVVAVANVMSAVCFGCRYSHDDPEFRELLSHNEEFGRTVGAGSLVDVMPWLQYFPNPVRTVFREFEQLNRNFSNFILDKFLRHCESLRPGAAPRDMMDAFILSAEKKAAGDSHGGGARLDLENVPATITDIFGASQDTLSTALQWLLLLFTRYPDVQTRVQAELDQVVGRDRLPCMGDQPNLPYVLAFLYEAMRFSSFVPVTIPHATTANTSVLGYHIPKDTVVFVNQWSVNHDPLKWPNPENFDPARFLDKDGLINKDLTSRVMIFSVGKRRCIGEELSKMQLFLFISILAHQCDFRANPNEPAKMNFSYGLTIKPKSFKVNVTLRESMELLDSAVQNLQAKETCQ

Cytochrome P450 1A1 = target: T2, Cytochrome P450 1A1 (Homo sapiens, UniProt P04798); assay: Inhibition of CYP1A1 (unknown origin)
T2 sequence (P04798 whole entry): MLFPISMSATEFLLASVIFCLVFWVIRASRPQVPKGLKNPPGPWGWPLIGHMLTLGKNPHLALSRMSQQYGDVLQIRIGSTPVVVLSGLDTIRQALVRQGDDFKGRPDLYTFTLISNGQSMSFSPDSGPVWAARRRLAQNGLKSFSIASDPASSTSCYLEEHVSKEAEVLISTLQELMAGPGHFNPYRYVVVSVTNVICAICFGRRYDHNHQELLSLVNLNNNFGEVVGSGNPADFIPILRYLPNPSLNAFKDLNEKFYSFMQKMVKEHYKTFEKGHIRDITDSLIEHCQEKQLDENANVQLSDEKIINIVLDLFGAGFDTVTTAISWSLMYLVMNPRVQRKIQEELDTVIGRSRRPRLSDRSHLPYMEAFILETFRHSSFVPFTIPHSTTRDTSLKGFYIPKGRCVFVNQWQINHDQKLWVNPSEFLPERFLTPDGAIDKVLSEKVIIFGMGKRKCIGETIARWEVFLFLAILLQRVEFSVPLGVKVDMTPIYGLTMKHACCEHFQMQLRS

Cytochrome P450 1A2 = target: T3, Cytochrome P450 1A2 (Homo sapiens, UniProt P05177); assay: Inhibition of CYP1A2 (unknown origin)
T3 sequence (P05177 whole entry): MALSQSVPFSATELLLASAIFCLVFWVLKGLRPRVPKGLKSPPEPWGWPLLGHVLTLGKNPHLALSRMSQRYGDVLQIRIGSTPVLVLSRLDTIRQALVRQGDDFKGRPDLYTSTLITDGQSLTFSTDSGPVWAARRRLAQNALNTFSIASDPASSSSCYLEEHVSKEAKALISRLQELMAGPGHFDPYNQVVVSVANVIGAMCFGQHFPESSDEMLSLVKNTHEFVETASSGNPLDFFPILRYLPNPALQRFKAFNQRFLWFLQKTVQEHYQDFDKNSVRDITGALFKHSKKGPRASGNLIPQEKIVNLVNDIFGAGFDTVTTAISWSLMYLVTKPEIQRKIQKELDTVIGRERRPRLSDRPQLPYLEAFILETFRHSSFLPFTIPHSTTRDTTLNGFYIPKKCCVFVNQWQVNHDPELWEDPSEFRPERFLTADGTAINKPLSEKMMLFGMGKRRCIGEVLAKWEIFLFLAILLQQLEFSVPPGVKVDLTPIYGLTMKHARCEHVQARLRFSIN

Measured: IC50

Oc1nc(-c2ccc(F)cc2)nc2ccccc12
> 1000 nM: Cytochrome P450 1B1 | Cytochrome P450 1A1 | Cytochrome P450 1A2
